{
  "source": "patent US9706770B2",
  "about": "“Rodenticide bait comprising difenacoum and method for controlling target rodent pests” (priority 2014, dated 2017)",
  "key": {"in vivo [1]": {"assay": "in vivo", "parameters": "species or system rat", "conditions": "male rats, control composition 56% cis/44% trans, 5.2 mg difenacoum/kg per os on D0; for hepatic concentration: from D+3", "experimental": "(§1) On D0 a control composition of the prior art comprising a molar proportion of cis-difenacoum of 56% and a molar proportion of trans-difenacoum of 44% is administered per os to seven groups of four male laboratory rats (Sprague Dawley rats, Charles River, Saint germain sur l'Arbresle, France) weighing between 180 and 220 g in an amount of 5.2 mg of difenacoum per kilogram of rat. On D+1, D+3, D+5, D+7, D+10, D+14 and D+21, 4 rats are sacrificed. The livers are removed and weighed. A liquid/solid extraction of difenacoum with acetone is performed. The difenacoum is analysed by HPLC on a C8 (250 mm×10 mm) column kept at 30° C. with a mobile phase formed from 80% acetonitrile and 20% acid water. The flow rate of the mobile phase is kept at 2 ml/min and the trans-difenacoum and cis-difenacoum are detected by spectrophotometric analysis at the wavelength of 258 nm. The trans-difenacoum and cis-difenacoum are quantified by calibration with known amounts of trans-difenacoum and cis-difenacoum. The results are given in FIG. 3, in which the hepatic persistence of trans-difenacoum is represented by solid squares (▪) and the hepatic persistence of cis-difenacoum is represented by open diamonds (⋄)."}, "[2]": {"format": "in vivo, rat", "conditions": "for concentration in the liver: D+1", "experimental": "as §1\nOn D+1 the concentration of cis-difenacoum in the liver of the female rats (9.6 μg/g of liver) is essentially equivalent to the concentration of cis-difenacoum in the liver of the male rats (7.3 μg/g of liver). The concentration on D+1 of trans-difenacoum in the liver of the female rats (3.3 μg/g of liver) is greater than the concentration of trans-difenacoum in the liver of the male rats (0.9 μg/g of liver). […] For the same dosage, the hepatic concentrations of trans-difenacoum are thus higher in the female at least up to three days after treatment (D0)."}, "[3]": {"target": "T1, recombinant enzyme rVKORC1 (Rattus norvegicus, UniProt Q6TEK4)", "T1 sequence (Q6TEK4 1-161)": "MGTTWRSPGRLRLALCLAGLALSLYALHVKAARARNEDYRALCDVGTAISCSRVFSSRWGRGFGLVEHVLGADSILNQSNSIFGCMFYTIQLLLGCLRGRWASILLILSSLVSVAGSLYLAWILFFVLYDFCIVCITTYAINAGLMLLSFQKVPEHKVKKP", "assay": "Inhibition constant of the recombinant enzyme rVKORC1", "format": "biochemical", "experimental": "In addition, the value of the inhibition constant (Kicis=60 nM) of the recombinant enzyme rVKORC1 by cis-difenacoum is similar to the value of the inhibition constant of rVKORC1 by trans-difenacoum (Kitrans=30 nM)."}, "Sprague Dawley male rats [4]": {"system": "Sprague Dawley male rats", "assay": "Coagulation time (Quick time) after a single per os dose of purified cis- or trans-difenacoum", "format": "in vivo, rat", "experimental": "The comparative study of the rodenticidal efficacy of purified trans-difenacoum and purified cis-difenacoum is carried out by administration by means of a stomach tube (per os): • of a solution of cis-difenacoum to a first group of four “Sprague Dawley” male rats weighing between 180 and 220 g, and • of a solution of trans-difenacoum to a second group of four “Sprague Dawley” male rats weighing between 180 and 220 g.\nThese solutions of cis-difenacoum and trans-difenacoum are obtained by weighing cis-difenacoum or trans-difenacoum and dilution in a mixture formed from 95% vegetable oil and 5% DMSO.\nThe doses of cis-difenacoum and trans-difenacoum used are 2.6 mg of cis-difenacoum or trans-difenacoum per kilogram of rat. The dose of 2.6 mg of cis-difenacoum and trans-difenacoum per kilogram of rat corresponds to 4 times the median lethal dose (LD50) of difenacoum for rats. The dose of 5.2 mg of cis-difenacoum or trans-difenacoum per kilogram of rat corresponds to 8 times the median lethal dose (LD50) of difenacoum for rats.\n3 ml blood samples are taken from the rats anaesthetised with isoflurane in sample tubes containing citrate (3.2%). The tubes are centrifuged at 2,000 g for 10 minutes and the plasma fraction is collected.\nThe coagulation time (Quick time) of the plasma is analysed by means of the “Neoplastine CI Determination of Prothrombin Time” kit (Diagnostica Stago, Asnière, France) by measurement on a Thrombotimer option 2 plus (Behnk Electronik, Norderstedt, Germany).\nThe normal value for the coagulation time of untreated rats is 10 to 20 seconds."}, "[5]": {"assay": "Hepatic persistence of trans and cis stereoisomers after a single per os dose of a mixture (Table 1)", "format": "in vivo, rat", "conditions": "male Sprague Dawley rats, mixture 56% trans/44% cis, 5.2 mg difenacoum/kg per os on D0, mean of 4 rats", "experimental": "On D0 per os tube feeding is performed on male laboratory rats (Sprague Dawley rats, Charles River, Saint germain sur 1′ Arbresle, France) aged 8 weeks and with a body mass of the order of 200 g with a mixture comprising 56% of trans-difenacoum and 44% of cis-difenacoum in an amount of 5.2 mg of difenacoum per kilogram of rat. The rats are kept alive by daily subcutaneous injection of a solution of vitamin K in an amount of 1 U per rat. On D+1, D+3, D+5, D+7, D+10, D+14 and D+21, 4 rats are anaesthetised with isoflurane and then sacrificed, and the livers are removed and frozen until analysed."}, "in vivo [6]": {"assay": "in vivo", "format": "in vivo, rat", "conditions": "Sprague Dawley, rat, liver, oral; male rats, one dose per day on D0, D+1, D+2; D+3 (day following the last dose); read-out: hepatic persistence (concentration in the liver)", "experimental": "(§2) Counting from D0 and for three days (D0, D+1 and D+2), trans-difenacoum in an amount of 0.6 mg/kg, 1.2 mg/kg or 2.6 mg/kg (mg of trans-difenacoum per kilogram of male rat) is administered daily to “Sprague Dawley” male rats weighing between 180 and 220 g. On D+3, the coagulation time of these male rats is measured and the concentration of trans-difenacoum in the liver of these male rats (expressed in μg of trans-difenacoum per g of liver) is analysed."}, "Sprague Dawley male rats [7]": {"system": "Sprague Dawley male rats", "assay": "in vivo", "format": "in vivo, rat", "experimental": "as §2"}, "[8]": {"system": "female Sprague Dawley rats", "assay": "in vivo", "format": "in vivo, rat", "experimental": "(§3) Counting from D0 and for three days (D0, D+1 and D+2), trans-difenacoum in an amount of 0.3 mg/kg; 0.6 mg/kg; 0.75 mg/kg; 1.2 mg/kg or 2.6 mg/kg (mg of trans-difenacoum per kilogram of female rat) is administered to female “Sprague Dawley” rats in an amount of one dose per day. On D+4, the coagulation time of these female rats is measured and the concentration of trans-difenacoum in the liver (expressed in μg of difenacoum per g of liver) of these female rats is analysed. The administration for three days (D0, D+1 and D+2) in an amount of a dose of trans-difenacoum greater than 0.3 mg/kg/day to female rats achieves at D+4 a high value of the coagulation time (greater than or equal to 500 seconds) in these female rats and a moderate hepatic persistence of less than 10 μg of trans-difenacoum per gram of liver for a dose of less than 2.6 mg/kg."}, "in vivo [9]": {"assay": "in vivo", "format": "in vivo, rat", "conditions": "Sprague Dawley, liver, oral, female rats", "experimental": "as §3"}, "[10]": {"conditions": "2.6 mg/kg per os on D0, D+1, untreated 10 to 20 seconds"}},
  "note": "Like-named read-outs stand apart in the source and are kept apart here.",
  "data": [
    {"smiles": "O=c1oc2ccccc2c(O)c1C1CC(c2ccc(-c3ccccc3)cc2)Cc2ccccc21", "note": "(stereo not drawn) [cis-difenacoum, 3-(biphenyl-4-yl)-1-(4-hydroxycoumarin-3-yl)-1,2,3,4-tetrahydronaphthalene, reference compound]", "values": [
      {"measurement": "hepatic concentration", "setting": "in vivo [1]", "value": 4, "unit": "µg/g"},
      {"measurement": "concentration in the liver", "setting": "[2]; female rats", "value": "9.6 μg/g of liver"},
      {"measurement": "concentration in the liver", "setting": "[2]; male rats", "value": "7.3 μg/g of liver"},
      {"measurement": "Ki", "setting": "[3]", "value": 60, "unit": "nM"},
      {"measurement": "coagulation time (Quick time)", "setting": "Sprague Dawley male rats [4]; [10]", "value": 62, "unit": "s"},
      {"measurement": "Hepatic content", "setting": "[5]; D + 1, listed as cis", "value": 16.82, "unit": "µg/g"},
      {"measurement": "Hepatic content", "setting": "[5]; D + 3, listed as cis", "value": 8.28, "unit": "µg/g"},
      {"measurement": "Hepatic content", "setting": "[5]; D + 5, listed as cis", "value": 4.86, "unit": "µg/g"},
      {"measurement": "Hepatic content", "setting": "[5]; D + 10, listed as cis", "value": 1.85, "unit": "µg/g"},
      {"measurement": "Hepatic content", "setting": "[5]; D + 21, listed as cis", "value": 1.41, "unit": "µg/g"}
    ]},
    {"smiles": "O=c1oc2ccccc2c(O)c1C1CC(c2ccc(-c3ccccc3)cc2)Cc2ccccc21", "note": "(stereo not drawn) [trans-difenacoum, 3-(biphenyl-4-yl)-1-(4-hydroxycoumarin-3-yl)-1,2,3,4-tetrahydronaphthalene]", "values": [
      {"measurement": "concentration at 1 day", "setting": "in vivo [1]; Sprague Dawley, rat, liver, oral, 5.2 mg/kg, D+1, read-out: hepatic concentration", "value": "~1000", "unit": "ng/g"},
      {"measurement": "hepatic concentration", "setting": "in vivo [1]", "value": "almost undetectable"},
      {"measurement": "concentration in the liver, female rats in comparison with male rats", "setting": "[2]; D+3", "value": "greater in the female rats"},
      {"measurement": "concentration in the liver", "setting": "[2]; female rats", "value": "3.3 μg/g of liver"},
      {"measurement": "kinetics of the hepatic elimination, female rats versus male rats", "setting": "[2]; in particular during the first 3 days", "value": "slower in the female rats than in the male rats"},
      {"measurement": "concentration in the liver", "setting": "[2]; male rats", "value": "0.9 μg/g of liver"},
      {"measurement": "concentration at 3 day", "setting": "in vivo [6]", "value": "~2000", "unit": "ng/g"},
      {"measurement": "amount contained in a rat corpse", "setting": "Sprague Dawley male rats [7]; considering that the liver contains half the ingested trans-difenacoum", "value": "about 40 μg"},
      {"measurement": "coagulability of the blood (increase in Quick time)", "setting": "Sprague Dawley male rats [7]; male rat, dosage of 1.2 mg/kg or higher, three daily doses", "value": "uncoagulable"},
      {"measurement": "global amount per liver", "setting": "Sprague Dawley male rats [7]; male rat, liver mass taken as of the order of 10 g", "value": 20, "unit": "µg"},
      {"measurement": "Quick time", "setting": "Sprague Dawley male rats [7]; male rats, 0.6, 1.2 or 2.6 mg/kg one dose per day on D0, D+1, D+2, D+3", "value": "massive increase"},
      {"measurement": "Ki", "setting": "[3]", "value": 30, "unit": "nM"},
      {"measurement": "coagulation time (Quick time)", "setting": "Sprague Dawley male rats [4]; [10]", "value": 62, "unit": "s"},
      {"measurement": "coagulation time (Quick time)", "setting": "Sprague Dawley male rats [4]; 5.2 mg/kg per os on D0, D+1", "value": 84, "unit": "s"},
      {"measurement": "Hepatic content", "setting": "[5]; D + 1", "value": 4.22, "unit": "µg/g"},
      {"measurement": "Hepatic content", "setting": "[5]; D + 3", "value": 1.05, "unit": "µg/g"},
      {"measurement": "Hepatic content", "setting": "[5]; D + 5", "value": 0.25, "unit": "µg/g"},
      {"measurement": "Hepatic content", "setting": "[5]; D + 10", "value": 0.1, "unit": "µg/g"},
      {"measurement": "Hepatic content", "setting": "[5]; D + 21", "value": 0.17, "unit": "µg/g"},
      {"measurement": "coagulability of the blood (increase in coagulation time)", "setting": "[8]; dosage of 0.6 mg/kg or higher, three daily doses", "value": "uncoagulable"},
      {"measurement": "coagulation time", "setting": "[8]; dose greater than 0.3 mg/kg/day on D0, D+1, D+2, D+4", "value": "greater than or equal to 500 seconds"},
      {"measurement": "concentration at 4 day", "setting": "in vivo [9]; 2.6 mg/kg per day, 2.6 mg per day and per kilogram of rat for 3 days, read-out: hepatic concentration", "value": "~12000", "unit": "ng/g"},
      {"measurement": "concentration at 4 day", "setting": "in vivo [9]; rat, three daily doses of less than 2.6 mg/kg, D+4, read-out: hepatic persistence", "value": "< 10000", "unit": "ng/g"}
    ]}
  ]
}
